How the values were obtained:
cocklebur = assay: Test B pre/postemergence cocklebur; type: in vivo, Xanthium strumarium
How it was run: (§1)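 Herbicidal effect was estimated by eye on a ten-point control scale after plants spent twelve to sixteen days in a greenhouse following soil or foliar treatment. Foliar sprays targeted plants at one to four leaves; all doses were formulated in a non-phytotoxic solvent with surfactant.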

giant foxtail = assay: Test B pre/postemergence giant foxtail; type: in vivo, Setaria faberii
How it was run: as §1

rape = assay: Test B pre/postemergence rape; type: in vivo, Brassica napus
How it was run: as §1

wheat = assay: Test B pre/postemergence wheat; type: in vivo, Triticum aestivum
How it was run: as §1

bedstraw = assay: Test B pre/postemergence bedstraw; type: in vivo, Galium aparine
How it was run: as §1

purple nutsedge = assay: Test B pre/postemergence purple nutsedge; type: in vivo, Cyperus rotundus
How it was run: as §1

surinam grass = assay: Test B pre/postemergence surinam grass; type: in vivo, Brachiaria decumbens
How it was run: as §1

soybean = assay: Test B pre/postemergence soybean; type: in vivo, Glycine max
How it was run: as §1

morningglory = assay: Test B pre/postemergence morningglory; type: in vivo, Ipomoea hederacea
How it was run: as §1

sugar beet = assay: Test B pre/postemergence sugar beet; type: in vivo, Beta vulgaris
How it was run: as §1

pigweed = assay: Test B pre/postemergence pigweed; type: in vivo, Amaranthus retroflexus
How it was run: as §1

blackgrass = assay: Test B pre/postemergence blackgrass; type: in vivo, Alopecurus myosuroides
How it was run: as §1

corn = assay: Test B pre/postemergence corn; type: in vivo, Zea mays
How it was run: as §1

velvetleaf = assay: Test B pre/postemergence velvetleaf; type: in vivo, Abutilon theophrasti
How it was run: as §1

wild oat = assay: Test B pre/postemergence wild oat; type: in vivo, Avena fatua
How it was run: as §1

crabgrass = assay: Test B pre/postemergence crabgrass; type: in vivo, Digitaria sanguinalis
How it was run: as §1

[1] = Postemergence, Rate 62 g/ha, scale 0 to 10, 0 is no effect, 10 is complete control
[2] = Postemergence, Rate 125 g/ha, scale of 0 to 10 where 0 is no effect and 10 is complete control
[3] = Preemergence, Rate 125 g/ha, scale of 0 to 10 where 0 is no effect and 10 is complete control
[4] = Preemergence, Rate 250 g/ha, scale 0 (no effect) to 10 (complete control)
[5] = Rate 62 g/ha, Preemergence, scale 0 to 10
[6] = Rate 250 g/ha, Postemergence, scale 0 to 10, 0 is no effect, 10 is complete control
[7] = Rate 500 g/ha, Postemergence, scale 0 to 10, 0 is no effect, 10 is complete control
[8] = Rate 500 g/ha, Preemergence, scale 0 to 10 (0 no effect, 10 complete control)

Compound: CC(C)N(C(=O)n1oc(=O)n(CCN(C)C(=O)c2ccccc2)c1=O)c1ccccc1 [Compound 761]
- Plant response rating, Cocklebur (cocklebur; [1]): 0
- Cocklebur plant response rating (cocklebur; [2]): 0
- Plant response rating, Cocklebur (cocklebur; [3]): 0
- Cocklebur plant response rating (cocklebur; [4]): 0
- Cocklebur plant response rating (cocklebur; [5]): 0
- Cocklebur plant response rating (cocklebur; [6]): 0
- Cocklebur plant response rating (cocklebur; [7]): 0
- Cocklebur plant response rating (cocklebur; [8]): 0
- Plant response rating, Giant foxtail (giant foxtail; [1]): 0
- Giant foxtail plant response rating (giant foxtail; [2]): 0
- Plant response rating, Giant foxtail (giant foxtail; [3]): 0
- Giant foxtail plant response rating (giant foxtail; [4]): 8
- Giant foxtail plant response rating (giant foxtail; [5]): 0
- Giant foxtail plant response rating (giant foxtail; [7]): 3
- Giant foxtail plant response rating (giant foxtail; [8]): 9
- Plant response rating, Rape (rape; [1]): 0
- Rape plant response rating (rape; [2]): 0
- Plant response rating, Rape (rape; [3]): 0
- Rape plant response rating (rape; [4]): 0
- Rape plant response rating (rape; [5]): 0
- Rape plant response rating (rape; [6]): 0
- Rape plant response rating (rape; [7]): 0
- Rape plant response rating (rape; [8]): 0
- Plant response rating, Wheat (wheat; [1]): 0
- Plant response rating, Wheat (wheat; [3]): 0
- Wheat plant response rating (wheat; [4]): 0
- Wheat plant response rating (wheat; [5]): 0
- Wheat plant response rating (wheat; [6]): 0
- Wheat plant response rating (wheat; [7]): 0
- Wheat plant response rating (wheat; [8]): 0
- Bedstraw plant response rating (bedstraw; [2]): 0
- Plant response rating, Bedstraw (bedstraw; [3]): 0
- Bedstraw plant response rating (bedstraw; [4]): 0
- Bedstraw plant response rating (bedstraw; [5]): 0
- Bedstraw plant response rating (bedstraw; [6]): 0
- Bedstraw plant response rating (bedstraw; [7]): 3
- Bedstraw plant response rating (bedstraw; [8]): 0
- Plant response rating, Nutsedge (purple nutsedge; [1]): 0
- Nutsedge plant response rating (purple nutsedge; [2]): 0
- Plant response rating, Nutsedge (purple nutsedge; [3]): 0
- Nutsedge plant response rating (purple nutsedge; [4]): 0
- Nutsedge plant response rating (purple nutsedge; [5]): 0
- Nutsedge plant response rating (purple nutsedge; [6]): 0
- Nutsedge plant response rating (purple nutsedge; [7]): 0
- Nutsedge plant response rating (purple nutsedge; [8]): 0
- Plant response rating, B. signalgrass (surinam grass; [1]): 0
- B. signalgrass plant response rating (surinam grass; [2]): 0
- B. signalgrass plant response rating (surinam grass; Preemergence, Rate 62 g/ha, scale of 0 to 10 where 0 is no effect and 10 is complete control): 0
- Plant response rating, B. signalgrass (surinam grass; [3]): 0
- B. signalgrass plant response rating (surinam grass; [4]): 0
- B. signalgrass plant response rating (surinam grass; [6]): 3
- B. signalgrass plant response rating (surinam grass; [7]): 3
- B. signalgrass plant response rating (surinam grass; [8]): 3
- Plant response rating, Soybean (soybean; [1]): 2
- Plant response rating, Soybean (soybean; [3]): 0
- Soybean plant response rating (soybean; [4]): 0
- Soybean plant response rating (soybean; [5]): 0
- Soybean plant response rating (soybean; [6]): 3
- Soybean plant response rating (soybean; [7]): 3
- Soybean plant response rating (soybean; [8]): 0
- Plant response rating, Morningglory (morningglory; [1]): 0
- Morningglory plant response rating (morningglory; [2]): 6
- Plant response rating, Morningglory (morningglory; [3]): 0
- Morningglory plant response rating (morningglory; [4]): 0
- Morningglory plant response rating (morningglory; [5]): 0
- Morningglory plant response rating (morningglory; [6]): 7
- Morningglory plant response rating (morningglory; [8]): 0
- Plant response rating, Sugarbeets (sugar beet; [1]): 2
- Plant response rating, Sugarbeets (sugar beet; [3]): 0
- Sugarbeets plant response rating (sugar beet; [4]): 0
- Sugarbeets plant response rating (sugar beet; [5]): 0
- Sugarbeets plant response rating (sugar beet; [6]): 3
- Sugarbeets plant response rating (sugar beet; [7]): 6
- Sugarbeets plant response rating (sugar beet; [8]): 0
- Plant response rating, Redroot pigweed (pigweed; [1]): 0
- Plant response rating, Redroot pigweed (pigweed; [3]): 0
- Redroot pigweed plant response rating (pigweed; [4]): 0
- Redroot pigweed plant response rating (pigweed; [5]): 0
- Redroot pigweed plant response rating (pigweed; [6]): 6
- Redroot pigweed plant response rating (pigweed; [7]): 6
- Redroot pigweed plant response rating (pigweed; [8]): 0
- Plant response rating, Blackgrass (blackgrass; [1]): 0
- Blackgrass plant response rating (blackgrass; [2]): 0
- Plant response rating, Blackgrass (blackgrass; [3]): 0
- Blackgrass plant response rating (blackgrass; [4]): 0
- Blackgrass plant response rating (blackgrass; [5]): 0
- Blackgrass plant response rating (blackgrass; [6]): 0
- Blackgrass plant response rating (blackgrass; [7]): 0
- Blackgrass plant response rating (blackgrass; [8]): 0
- Plant response rating, Corn (corn; [1]): 0
- Corn plant response rating (corn; [2]): 0
- Plant response rating, Corn (corn; [3]): 0
- Corn plant response rating (corn; [4]): 0
- Corn plant response rating (corn; [5]): 0
- Corn plant response rating (corn; [6]): 0
- Corn plant response rating (corn; [7]): 0
- Corn plant response rating (corn; [8]): 0
- Plant response rating, Velvetleaf (velvetleaf; [1]): 0
- Plant response rating, Velvetleaf (velvetleaf; [3]): 0
- Velvetleaf plant response rating (velvetleaf; [4]): 0
- Velvetleaf plant response rating (velvetleaf; [5]): 0
- Velvetleaf plant response rating (velvetleaf; [6]): 0
- Velvetleaf plant response rating (velvetleaf; [7]): 0
- Velvetleaf plant response rating (velvetleaf; [8]): 0
- Plant response rating, Wild oats (wild oat; [1]): 0
- Plant response rating, Wild oats (wild oat; [3]): 0
- Wild oats plant response rating (wild oat; [4]): 0
- Wild oats plant response rating (wild oat; [5]): 0
- Wild oats plant response rating (wild oat; [6]): 0
- Wild oats plant response rating (wild oat; [7]): 0
- Wild oats plant response rating (wild oat; [8]): 0
- Plant response rating, Crabgrass (crabgrass; [3]): 3
- Crabgrass plant response rating (crabgrass; [4]): 5
- Crabgrass plant response rating (crabgrass; [5]): 3
- Crabgrass plant response rating (crabgrass; [6]): 0
- Crabgrass plant response rating (crabgrass; [7]): 0
- Crabgrass plant response rating (crabgrass; [8]): 3
